# Marks after values point to notes of the source that are not given here.
# How the values were obtained:
# age spot = assay: Skin whitening test: age spot photography, Reverse Photo Engineering quantitative analysis; type: in vivo, human; conditions: for Age Spot Reduction - Reverse Photo Engineering Data, Max % Improvement / Age Spot Reduction - Reverse Photo Engineering Data, % Difference: 0.2% Ac-Gly-β-Ala sample
# Method: In this example, the in-vivo skin test is finished by AMA Laboratories USA. The skin color changes are evaluated with Minolta chromameter color computer system. The Age spot photography is evaluated with Reverse Photo Engineering Quantitative Analysis.
# In terms of age spot photography, the participants were 5 women aged 38-49 years old, wherein four of the participants were caucasian, and one was Asian. The participants were tested before (baseline), and after using 14, 28, 56 days with high-resolution digital camera, then Reverse Photo Engineering quantitative analysis to perform the age spot change evaluation.
# [1] = tested on: Human IL-8 secretion, Normal Human Epidermal Keratinocytes (NHEK); assay: Human IL-8 production in UVB-irradiated NHEK (ELISA); type: cell-based; conditions: for Human IL-8 Content, Average: 40 mJ/cm^2 UVB; for Human IL-8 Content, Average / Human IL-8 Content, Entry 1 / Human IL-8 Content, Entry 2 / Human IL-8 Content, Entry 3: Positive Control 100%; for Human IL-8 Content, Entry 1: passage 2 + 2, 40 mJ/cm^2 UVB; for Human IL-8 Content, Entry 2 / Human IL-8 Content, Entry 3: passage 2 + 3, 40 mJ/cm^2 UVB
# Method: (§1) Normal Human Epidermal Keratinocytes (NHEK) (PromoCell No. C-12008);
# (§2) Positive Control: 40 mJ/cm^2 UVB,
# (§3) Negative Control: No UVB irradiation;
# (§4) a. Rinse the confluent NHEK cells with sterile D-PBS then trypsinize all cells and perform cell counting.
# (§5) b. Dilute the cell density to 4˜8E+04/mL and seed 0.5 mL cell liquid (equals to 2˜4E+04 cells) each well in 24 well plate.
# (§6) c. Incubate NHEK cells at 37° C., 5% CO2 until subconfluence.
# (§7) d. Prepared dosing solution of testing material in Complete Medium: 0.4%, 0.2%, 0.1%, 0.05%.
# (§8) e. Rinse the NHEK cells with sterile D-PBS and discard rinse buffer. Add 400 μL of controls and testing materials in different concentrations into NHEK cells in 24 well plates.
# (§9) f. Pre-incubate NHEK cells with testing material at 37° C., 5% CO2 for about 6 hours.
# (§10) g. After pre-incubating for about 6 hours, wash the NHEK cells with sterile D-PBS for twice then add […] sterile D-PBS for UVB irradiation.
# (§11) h. UVB intensity is about 2300 μW/cm^2 and UVB energy is about 40 mJ/cm^2.
# (§12) i. After UVB irradiation, discard sterile D-PBS and wash again. Add 400 μL of the same dosing solution in to each wells.
# (§13) j. Post-incubate at 37° C., 5% CO2 for about 18 hours.
# (§14) k. After post-incubating for 18 hours, collect the supernatant of controls and testing materials.
# (§15) l. Determine the IL-6/IL-8 content of the supernatant by R&D ELISA kit as mentioned previously.
# (§16) Normal Human Epidermal Keratinocytes (NHEK) were treated by the above-mentioned glycine derivatives for evaluating their anti-inflammatory effect on keratinocytes in this example.
# Raw264.7 cells = assay: Cell viability on Raw264.7; type: cell-based, Murine; conditions: for cell viability on Raw264.7, Entry 2: passage N + 5; for cell viability on Raw264.7, Entry 2 / cell viability on Raw264.7, Entry 3 / cell viability on Raw264.7, Entry 1 / cell viability on Raw264.7, Average: with LPS & IFN-r, Positive Control 100%; for cell viability on Raw264.7, Entry 3: passage N + 6; for cell viability on Raw264.7, Entry 1: passage N + 7
# Method: 4.4. Cell Viability is Tested by Neutral Red Uptake Experience or MTT Assay.
# [2] = tested on: Human IL-6 secretion, Normal Human Epidermal Keratinocytes (NHEK); assay: Human IL-6 production in UVB-irradiated NHEK (ELISA); type: cell-based; conditions: for Human IL-6 Content, Average: 40 mJ/cm^2 UVB; for Human IL-6 Content, Average / Human IL-6 Content, Entry 1 / Human IL-6 Content, Entry 2 / Human IL-6 Content, Entry 3 / Human IL-6 Content, Entry4: Positive Control 100%; for Human IL-6 Content, Entry 1 / Human IL-6 Content, Entry 2: passage 2 + 2, 40 mJ/cm^2 UVB; for Human IL-6 Content, Entry 3 / Human IL-6 Content, Entry4: passage 2 + 3, 40 mJ/cm^2 UVB
# Method: as §1, §2, §3, §4, §5, §6, §7, §8, §9, §10, §11, §12, §13, §14, §15, §16
# [3] = tested on: Mlph (melanophilin) mRNA in B16-F10 cells; assay: Reduction of melanophilin expression on transcriptional level (qPCR); type: cell-based, Murine
# Method: Murine melanoma cell line B16-F10 (BCRC No. 60031)
# a. Rinse the confluent B16-F10 cells with sterile D-PBS then trypsinize all cells and perform cell counting.
# b. Seeding 2E+06 cells per 10-cm dish.
# c. Incubate B16F10 cells at 37° C., 5% CO2 for about 24 hours.
# d. Prepared 0.5% testing material in Complete Medium.
# e. Discard the medium and add 9 mL Complete Medium and 0.5% testing material into B16-F10 cells in 10-cm dish.
# f. Incubate B16-F10 cells at 37° C., 5% CO2 for about 1 hour.
# g. After incubating for about 1 hour, discard the supernatant and wash the B16-F10 cells with sterile D-PBS.
# h. Add 3 mL Trizol to suspend cells and qPCR test by Welgene Biotech Co., Ltd (outsourcing test).
# [4] = 0.5% Ac-Gly-β-Ala, B16-F10, about 1 hour, Control 100%
compound,measurement,setting,value
"CC(=O)NCC(=O)NCCC(=O)O [Ac-Gly-β-Ala, 3-(2-acetylamino-acetylamino)-propionic acid]","Age Spot Reduction - Reverse Photo Engineering Data, Max % Improvement",age spot; Day 14,−51.67%
same,"Age Spot Reduction - Reverse Photo Engineering Data, % Difference",age spot; Day 14 vs baseline,−41.47%*
same,"Age Spot Reduction - Reverse Photo Engineering Data, Max % Improvement",age spot; Day 28,−80.63%
same,"Age Spot Reduction - Reverse Photo Engineering Data, % Difference",age spot; Day 28 vs baseline,−63.37%
same,"Age Spot Reduction - Reverse Photo Engineering Data, Max % Improvement",age spot; Day 56,−87.40%
same,"Age Spot Reduction - Reverse Photo Engineering Data, % Difference",age spot; Day 56 vs baseline,−73.07%*
same,quantitative analyzed data for the age spot change evaluation,age spot; sample containing 0.2% Ac-Gly-β-Ala,significantly decreased
same,"IL-8 production, dose dependence","[1]; 0.05%-0.4%, UVB",inhibited IL-8 production in dose-dependent manner
same,"Human IL-8 Content, Average","[1]; Table 7, 0.05%",97%
same,"Human IL-8 Content, Entry 1","[1]; Table 7, 0.05%",107%
same,"Human IL-8 Content, Entry 2","[1]; Table 7, 0.05%",81%
same,"Human IL-8 Content, Entry 3","[1]; Table 7, 0.05%",103%
same,"Human IL-8 Content, Average","[1]; Table 7, 0.10%",80%
same,"Human IL-8 Content, Entry 1","[1]; Table 7, 0.10%",76%
same,"Human IL-8 Content, Entry 2","[1]; Table 7, 0.10%",70%
same,"Human IL-8 Content, Entry 3","[1]; Table 7, 0.10%",93%
same,"Human IL-8 Content, Average","[1]; Table 7, 0.20%",69%
same,"Human IL-8 Content, Entry 1","[1]; Table 7, 0.20%",77%
same,"Human IL-8 Content, Entry 2","[1]; Table 7, 0.20%",72%
same,"Human IL-8 Content, Entry 3","[1]; Table 7, 0.20%",59%
same,"Human IL-8 Content, Entry 1","[1]; Table 7, 0.40%",10%
same,"Human IL-8 Content, Entry 2","[1]; Table 7, 0.40%",5%
same,"Human IL-8 Content, Entry 3","[1]; Table 7, 0.40%",13%
same,"cell viability on Raw264.7, Entry 2",Raw264.7 cells; 0.05%,101%
same,"cell viability on Raw264.7, Entry 3",Raw264.7 cells; 0.05%,89%
same,"cell viability on Raw264.7, Entry 1",Raw264.7 cells; 0.05%,101%
same,"cell viability on Raw264.7, Average",Raw264.7 cells; 0.05%,96%
same,"cell viability on Raw264.7, Entry 2",Raw264.7 cells; 0.10%,104%
same,"cell viability on Raw264.7, Entry 3",Raw264.7 cells; 0.10%,87%
same,"cell viability on Raw264.7, Entry 1",Raw264.7 cells; 0.10%,95%
same,"cell viability on Raw264.7, Average",Raw264.7 cells; 0.10%,97%
same,"cell viability on Raw264.7, Entry 2",Raw264.7 cells; 0.20%,98%
same,"cell viability on Raw264.7, Entry 3",Raw264.7 cells; 0.20%,91%
same,"cell viability on Raw264.7, Entry 1",Raw264.7 cells; 0.20%,90%
same,"cell viability on Raw264.7, Average",Raw264.7 cells; 0.20%,100%
same,"cell viability on Raw264.7, Entry 2",Raw264.7 cells; 0.40%,77%
same,"cell viability on Raw264.7, Entry 3",Raw264.7 cells; 0.40%,89%
same,"cell viability on Raw264.7, Entry 1",Raw264.7 cells; 0.40%,86%
same,"cell viability on Raw264.7, Average",Raw264.7 cells; 0.40%,88%
same,Cell viability,"Raw264.7 cells; Raw264.7, all of dosing solution (0.05-0.4%)",higher than 85%
same,"IL-6 production, dose dependence","[2]; 0.05%-0.4%, UVB",dose-dependently inhibited
same,"Human IL-6 Content, Average","[2]; Table 6, 0.05%",59%
same,"Human IL-6 Content, Entry 1","[2]; Table 6, 0.05%",68%
same,"Human IL-6 Content, Entry 2","[2]; Table 6, 0.05%",58%
same,"Human IL-6 Content, Entry 3","[2]; Table 6, 0.05%",49%
same,"Human IL-6 Content, Entry4","[2]; Table 6, 0.05%",62%
same,"Human IL-6 Content, Average","[2]; Table 6, 0.10%",34%
same,"Human IL-6 Content, Entry 1","[2]; Table 6, 0.10%",43%
same,"Human IL-6 Content, Entry 2","[2]; Table 6, 0.10%",25%
same,"Human IL-6 Content, Entry 3","[2]; Table 6, 0.10%",28%
same,"Human IL-6 Content, Entry4","[2]; Table 6, 0.10%",42%
same,"Human IL-6 Content, Average","[2]; Table 6, 0.20%",15%
same,"Human IL-6 Content, Entry 1","[2]; Table 6, 0.20%",19%
same,"Human IL-6 Content, Entry 2","[2]; Table 6, 0.20%",10%
same,"Human IL-6 Content, Entry 3","[2]; Table 6, 0.20%",10%
same,"Human IL-6 Content, Entry4","[2]; Table 6, 0.20%",20%
same,"Human IL-6 Content, Entry 1","[2]; Table 6, 0.40%",0%
same,"Human IL-6 Content, Entry 2","[2]; Table 6, 0.40%",0%
same,"Human IL-6 Content, Entry 3","[2]; Table 6, 0.40%",0%
same,"Human IL-6 Content, Entry4","[2]; Table 6, 0.40%",10%
same,"Mlph mRNA expression level, Average",[3]; [4],55%
same,"Mlph mRNA expression level, Entry 1",[3]; [4],80%
same,"Mlph mRNA expression level, Entry 2",[3]; [4],40%
same,"Mlph mRNA expression level, Entry 3",[3]; [4],46%
same,effect on Mlph in transcriptional (mRNA) level,"[3]; 0.5%, B16-F10",inhibitory effect

# Source: patent publication US20140314697A1, “Method for Inhibiting Inflammation and Reducing Melanophilin Expression with Glycine Derivatives And the Composition Thereof” (CORUM INC., priority 2013, published 2014)
